Structures are written as SMILES.

The target of this experiment is T1, human GPBAR1 receptor (Homo sapiens, UniProt Q8TDU6).
T1 construct: expressed in transfected cells
T1 sequence (Q8TDU6 1-330): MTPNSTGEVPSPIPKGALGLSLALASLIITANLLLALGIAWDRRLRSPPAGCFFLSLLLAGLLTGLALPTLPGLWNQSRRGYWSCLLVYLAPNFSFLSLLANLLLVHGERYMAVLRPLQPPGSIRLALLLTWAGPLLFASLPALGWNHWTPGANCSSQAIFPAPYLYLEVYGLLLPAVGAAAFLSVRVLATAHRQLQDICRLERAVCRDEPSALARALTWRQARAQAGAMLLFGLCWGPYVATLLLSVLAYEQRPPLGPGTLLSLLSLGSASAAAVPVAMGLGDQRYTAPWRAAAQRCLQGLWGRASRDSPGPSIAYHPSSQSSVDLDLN
The experiment in a line: functional cAMP assay in CHO-dhfr(minus) cells expressing human GPBAR1 receptors. The class given is cell-based. Conditions: human EC50, functional cAMP assay, 30 min at 30° C. As for the experimental part:
The final clone was verified by DNA sequence analysis. The plasmid was transfected into CHO cells deficient in dihydrofolate reductase activity (CHO-dhfr−) using Lipofectamine plus (Invitrogen). Clones were isolated in limited dilution conditions and identified by activities in the cAMP assay using lithocholic acid as agonist.
The growth medium was exchanged with Krebs Ringer Bicarbonate buffer with 1 mM IBMX and incubated at 30° C. for 30 min. Compounds were added to a final assay volume of 100 μl and incubated for 30 min at 30° C. […] The time-resolved energy transfer is measured by a TRF reader (Evotec Technologies GmbH, Hamburg Germany), equipped with a ND:YAG laser as excitation source.
EC50 values were determined using Activity Base analysis (ID Business Solution, Limited). […] Specificity for GPBAR1 was tested in non-transfected CHO cells in the same assay as above.

By EC50 is commonly meant the concentration that produces a half-maximal response. A lower EC50 goes with greater potency. In turn, `COc1cc(C(CC(c2ccc(Br)cc2)c2ccccc2C)=NO)ccn1` (racemic) [Example 109, 3-(4-Bromo-phenyl)-1-(2-methoxy-pyridin-4-yl)-3-o-tolyl-propan-1-one oxime] yielded a concentration giving a half-maximal response (EC50) of 702 nM. With `Cc1cc(C(CC(c2ccc(C#CCCC(=O)O)cc2)c2ccccc2C)=NO)ccn1` (racemic) [Example 111, 5-{4-[3-[Hydroxyimino]-3-(2-methyl-pyridin-4-yl)-1-o-tolyl-propyl]-phenyl}-pent-4-ynoic acid] the figure was 27 nM; with `Cc1cc(C(CC(c2ccc(-c3ccc(C(=O)O)c(F)c3)cc2)c2ccccc2C)=NO)ccn1` (racemic) [Example 112, 3-Fluoro-4′-[3-[hydroxyimino]-3-(2-methyl-pyridin-4-yl)-1-o-tolyl-propyl]-biphenyl-4-carboxylic acid], 16 nM. For the compound `Cc1cc(C(CC(c2ccc(-c3ccc(F)c(C(=O)O)c3)cc2)c2ccccc2C)=NO)ccn1` (racemic) [Example 113, 4-Fluoro-4′-[3-[hydroxyimino]-3-(2-methyl-pyridin-4-yl)-1-o-tolyl-propyl]-biphenyl-3-carboxylic acid], the half-maximal effective concentration (EC50) amounted to 215 nM. With `CC(C)CC(CC(=NO)c1ccncc1)c1ccc(Br)cc1` (racemic) [Example 114, 3-(4-Bromo-phenyl)-5-methyl-1-pyridin-4-yl-hexan-1-one oxime] the figure was 1080 nM; with `Cc1cc(C(CC(c2ccc(CCCCC(=O)O)cc2)c2ccccc2C)=NO)ccn1` (racemic) [Example 115, 5-{4-[3-[Hydroxyimino]-3-(2-methyl-pyridin-4-yl)-1-o-tolyl-propyl]-phenyl}-pentanoic acid], 41 nM. Next, `Cc1ccccc1C(CC(=NO)c1ccnc(Cl)c1)c1ccc(Br)cc1` (racemic) [Example 119, 3-(4-Bromo-phenyl)-1-(2-chloro-pyridin-4-yl)-3-o-tolyl-propan-1-one oxime]: 227 nM; `Cc1ccccc1C(CC(=NO)c1cc(F)ncc1Cl)c1ccc(Br)cc1` (racemic) [Example 121, 3-(4-Bromo-phenyl)-1-(5-chloro-2-fluoro-pyridin-4-yl)-3-o-tolyl-propan-1-one oxime]: 24 nM; `Cc1cnc(F)cc1C(CC(c1ccc(Br)cc1)c1ccccc1C)=NO` (racemic) [Example 124, 3-(4-Bromo-phenyl)-1-(2-fluoro-5-methyl-pyridin-4-yl)-3-o-tolyl-propan-1-one oxime]: 17 nM.

`Cc1ccccc1C(CC(=NO)c1ccc2ncccc2c1)c1ccc(Br)cc1` (racemic) [Example 125, 3-(4-Bromo-phenyl)-1-quinolin-6-yl-3-o-tolyl-propan-1-one oxime] yielded an EC50 of 2210 nM.

Compound `Cc1cc(C(CC(c2ccc(Br)cc2)c2ccccc2C)=NO)cc(F)n1` (racemic) [Example 126, 3-(4-Bromo-phenyl)-1-(2-fluoro-6-methyl-pyridin-4-yl)-3-o-tolyl-propan-1-one oxime] showed an EC50 of 61 nM.

The compound `Cc1ccccc1C(CC(=NO)c1cc(Cl)ncc1F)c1ccc(Br)cc1` (racemic) [Example 127, 3-(4-Bromo-phenyl)-1-(2-chloro-5-fluoro-pyridin-4-yl)-3-o-tolyl-propan-1-one oxime] displayed an EC50 of 46 nM.

The compound `Cc1cc(C(CC(c2ccc(Br)cc2)C(C)(C)C)=NO)ccn1` (racemic) [Example 129, 3-(4-Bromo-phenyl)-4,4-dimethyl-1-(2-methyl-pyridin-4-yl)-pentan-1-one oxime] had an EC50 of 591 nM. `Cc1cnc(F)cc1C(CC(c1ccc(-c2ccc(C(=O)O)cc2)cc1)c1ccccc1C)=NO` (racemic) [Example 130, 4′-{3-(2-Fluoro-5-methyl-pyridin-4-yl)-3-[hydroxyimino]-1-o-tolyl-propyl}-biphenyl-4-carboxylic acid] gave an EC50 of 87 nM.

For `Cc1cc(C(=O)O)ccc1-c1ccc(C(C/C(=N\O)c2ccc(=O)n(C)c2)c2ccc(Cl)cc2Cl)cc1` (racemic) [Example 476, 4′-[1-(2,4-Dichloro-phenyl)-3-[(E)-hydroxyimino]-3-(1-methyl-6-oxo-1,6-dihydro-pyridin-3-yl)-propyl]-2-methyl-biphenyl-4-carboxylic acid], the concentration for a half-maximal effect (EC50) came out at 49 nM. Next, `Cc1ccccc1C(C/C(=N\O)c1ccc(=O)n(C)c1)c1ccc(C(=O)N[C@@H](CO)C(C)C)cc1` (single isomer, unassigned) [Example 306]: 511 nM. The compound `Cc1cc(Cl)ccc1[C@H](C/C(=N\O)c1ccc(=O)n(C)c1)c1ccc(-c2ccc(C(=O)O)cc2)cc1` (single isomer, unassigned) [Example 393, (+)-4′-[1-(4-Chloro-2-methyl-phenyl)-3-[(E)-hydroxyimino]-3-(1-methyl-6-oxo-1,6-dihydro-pyridin-3-yl)-propyl]-biphenyl-4-carboxylic acid; compound with triethylamine 1:0.9] yielded an EC50 of 95 nM. With `Cc1cc(Cl)ccc1[C@@H](C/C(=N\O)c1ccc(=O)n(C)c1)c1ccc(-c2ccc(C(=O)O)cc2)cc1` (single isomer, unassigned) [Example 394, (−)-4′-[1-(4-Chloro-2-methyl-phenyl)-3-[(E)-hydroxyimino]-3-(1-methyl-6-oxo-1,6-dihydro-pyridin-3-yl)-propyl]-biphenyl-4-carboxylic acid; compound with triethylamine 1:0.85] the figure was 302 nM; with `Cc1cc(/C(CC(c2ccc(-c3ccc(C(=O)O)cc3)cc2)c2ccc(Cl)cc2C)=N/O)ccn1` (single isomer, unassigned) [Example 396, (−)-4′-[1-(4-Chloro-2-methyl-phenyl)-3-[(E)-hydroxyimino]-3-(2-methyl-pyridin-4-yl)-propyl]-biphenyl-4-carboxylic acid; compound with triethylamine 1:0.7], 29 nM; with `Cc1cc(/C(C[C@H](c2ccc(-c3ccc(C(=O)O)cc3)cc2)c2ccc(F)cc2C)=N/O)ccn1` (single isomer, unassigned) [Example 397, (+)-4′-[1-(4-Fluoro-2-methyl-phenyl)-3-[(E)-hydroxyimino]-3-(2-methyl-pyridin-4-yl)-propyl]-biphenyl-4-carboxylic acid; compound with triethylamine 1:0.75], 17 nM. With `Cc1cc(/C(C[C@@H](c2ccc(-c3ccc(C(=O)O)cc3)cc2)c2ccc(F)cc2C)=N/O)ccn1` (single isomer, unassigned) [Example 398, (−)-4′-[1-(4-Fluoro-2-methyl-phenyl)-3-[(E)-hydroxyimino]-3-(2-methyl-pyridin-4-yl)-propyl]-biphenyl-4-carboxylic acid; compound with triethylamine 1:0.75] the figure was 3 nM; with `Cc1cc(F)ccc1[C@H](C/C(=N\O)c1ccc(=O)n(C)c1)c1ccc(Br)cc1` (single isomer, unassigned) [Example 404, (−)-5-{3-(4-Bromo-phenyl)-3-(4-fluoro-2-methyl-phenyl)-1-[(E)-hydroxyimino]-propyl}-1-methyl-1H-pyridin-2-one], 5 nM. Next, `Cc1cc(F)ccc1[C@@H](C/C(=N\O)c1ccc(=O)n(C)c1)c1ccc(Br)cc1` (single isomer, unassigned) [Example 405, (+)-5-{3-(4-Bromo-phenyl)-3-(4-fluoro-2-methyl-phenyl)-1-[(E)-hydroxyimino]-propyl}-1-methyl-1H-pyridin-2-one]: 8 nM; `Cc1cc(F)ccc1[C@H](C/C(=N\O)c1ccc(=O)n(C)c1)c1ccc(-c2ccc(S(N)(=O)=O)cc2)cc1` (single isomer, unassigned) [Example 406, (−)-4′-[1-(4-Fluoro-2-methyl-phenyl)-3-[(E)-hydroxyimino]-3-(1-methyl-6-oxo-1,6-dihydro-pyridin-3-yl)-propyl]-biphenyl-4-sulfonic acid amide]: 9 nM. In turn, `Cc1cc(F)ccc1[C@@H](C/C(=N\O)c1ccc(=O)n(C)c1)c1ccc(-c2ccc(S(N)(=O)=O)cc2)cc1` (single isomer, unassigned) [Example 407, (+)-4′-[1-(4-Fluoro-2-methyl-phenyl)-3-[(E)-hydroxyimino]-3-(1-methyl-6-oxo-1,6-dihydro-pyridin-3-yl)-propyl]-biphenyl-4-sulfonic acid amide] showed an EC50 of 12 nM. Next, `Cc1cc(Cl)ccc1[C@H](C/C(=N\O)c1ccc(=O)n(C)c1)c1ccc(-c2ccc(S(N)(=O)=O)cc2)cc1` (single isomer, unassigned) [Example 413, (−)-4′-[1-(4-Chloro-2-methyl-phenyl)-3-[(E)-hydroxyimino]-3-(1-methyl-6-oxo-1,6-dihydro-pyridin-3-yl)-propyl]-biphenyl-4-sulfonic acid amide]: 18 nM; `Cc1cc(Cl)ccc1[C@@H](C/C(=N\O)c1ccc(=O)n(C)c1)c1ccc(-c2ccc(S(N)(=O)=O)cc2)cc1` (single isomer, unassigned) [Example 414, (+)-4′-[1-(4-Chloro-2-methyl-phenyl)-3-[(E)-hydroxyimino]-3-(1-methyl-6-oxo-1,6-dihydro-pyridin-3-yl)-propyl]-biphenyl-4-sulfonic acid amide]: 18 nM.

The values above are taken from patent US8765730B2 (Hoffmann-La Roche Inc, priority 2010, dated 2014).
